Assay results from US4657924A, “Nafazatrom as a lipoxygenase inhibitor” (priority 1983, dated 1987).

Tests used:
[1] = Antiasthmatic, inflammation-inhibiting and gastro-protective action; conditions: in words
[2] = tested on: v.jugularis, a.carotis and a.femoralis; conditions: Seuter et al., 1979; cited from earlier work
[3] = tested on: synthesis of various prostaglandins in RSVM and BAM; experiment: Prostaglandin synthesis in microsomes of sheep seminal vesicles (RSVM) and cattle aortas (BAM); format: biochemical
Description: The specific PGI2 -stimulating action of nafazatrom was shown in vitro in a mixture of microsomes from the seminal vesicles of sheep (RSVM) and the aortas of cattle (BAM) (compare F. Cottee et al., Protaglandins, 14, 413, 1977). ^3 H-arachidonic acid was incubated with a mixture of RSVM and BAM in the presence of 3.10^-5 g/ml of nafazatrom at 25° C. for 10 minutes. The reaction was stopped by acidification to pH 3.5. The fatty acid metabolites were extracted with ethyl acetate. The ethyl acetate was evaporated off under N2, the residue was taken up in CH3 OH/CHCl3 (1:1) and the mixture was discharged on thin layer chromatography plastic sheets. Separation was effected with a mobile phase mixture of ethyl acetate/glacial acetic acid/isooctane/H2 O (110:20:50:10; organic phase) (P. Needleman et al., The Journal of Clinical Investigation 1978, 61, 839-849). The distribution of the radioactivity was measured by means of a radio scanner.

[4] = tested on: rabbit hearts; experiment: Rabbit hearts perfused by the method of Langendorff, perfusion pressure
Description: The heart was removed from the rabbits (up to about 2 kg) under Nembutal anaesthesia and cannulas were attached at the aorta and at the a.pulmonalis. To measure the isovolumetric contractions, a silicon rubber balloon filled with liquid was inserted into the left ventricle via the left auricle. The balloon was connected to a liquid sensor (Statham P 23 Db) via a liquid bridge. The perfusion pressure was recorded with a pressure sensor, which was connected to the perfusion system via T-piece before the aorta cannula of the heart. The contraction force and perfusion pressure were recorded with a Gould 2600 S high-speed recorder. The hearts were stimulated electrically at a frequency of 180/minute and a stimulation duration of 5 mseconds.
Perfusion of the hearts was effected with Krebs-Henseleit solution (KH solution), which was gassed with carbogen (95% of O2, 5% of CO2) or with a gas mixture of 2% of O2, 5.6% of CO2 and the remainder N2. The perfusion volume was 20 ml/minute and was adjusted by a roller pump (Desaga, 132100). The nafazatrom and the platelet suspensions (obtained from the same rabbit from which the heart is removed) were added with the aid of infusion pumps (roller pumps, Braun-Melsungen), the solution or suspension being infused at a flow rate of 0.2 or 0.1 ml/minute from an infusion syringe via a Taigon tube and a fine cannula into the inlet tube shortly before the heart. The final concentration of the platelets was 1×10^7 /ml of KH solution. The solution flowing out of the heart (cannula in the a.pulmonalis) was collected periodically, under ice-cooling. To measure the concentrations of thromboxan as TXB2 and of prostacyclin as 6-keto-PGF1^α, determination of which was effected with the aid of radioimmunoassay, aliquot parts by volume were freeze-dried and taken up in one tenth of the original volume of water.

[5] = tested on: leucocytes; experiment: Leucocyte stickiness in hamster cheek pouch venules; format: in vivo, Syrian golden hamster; conditions: intraarterial, 1.0 mg/kg
Description: The number of leucocytes counted will be greater, the lower the stickiness of the cells. Male Syrian golden hamsters (80-100 g) were anaesthetized with Nembutal (i.p.; 60 mg/kg). After insertion of a PE 10 catheter into the a.femoralis, the animal was laid on a Duling dissecting platform (MVR 5, 423 (1973)) and the right check pouch was withdrawn by inserting a Q-Tip. It was carefully drawn into the envisaged part of the platform, stretched and fixed. From the start of the dissection, 5 ml/minute of Superfusat flowed over the prepared cheek pouch. The temperature of the solution is 36° C. While treating the vessels with care, the upper layer tissue was separated longitudinally and folded back to the side. Under about 200-fold magnification, an area of about 1 cm^2 of connective tissue was carefully exposed. The animal was placed on the object stand of a microscope, together with the dissecting platform. A thermocouple was inserted into the left cheek pouch. The body temperature of the animal was thus monitored and kept at ±0.3° C. with the aid of an IR lamp (250 watt). The leucocyte stickiness was measured at about 500-fold magnification. A venule (30-40 μm .phi.) was selected in the exposed area. The number of leucocytes per unit time (minutes) which migrate past a certain section of this vessel was counted.

[6] = tested on: prostacyclin (PGI2) from the vascular endothelium; conditions: Vermylen et al., Chamone et al., McIntyre and Salzman; cited from earlier work
[7] = tested on: 15-lipoxygenase; experiment: 15-lipoxygenase inhibition; format: biochemical; conditions: concentrations of >10 μg/ml
[8] = tested on: Lipoxygenase (leukotriene B4 biosynthesis in human PMN leucocytes); experiment: Lipoxygenase inhibition: inhibition of leukotriene B4 biosynthesis in human PMN leucocytes; format: cell-based
Description: The human PMN leucocytes (95%) used in the present example were obtained from heparinized complete blood by dextran sedimentation and subsequent density gradient separation (Ficoll-Paque) (compare A. Boyum, Scand. J. Immunol., 5, Suppl. 5, 9, 1976).
2×10^7 cells/ml were suspended in Dulbecco phosphate buffer containing Ca^2+ and were incubated with radioactively labelled arachidonic acid and the calcium ionophor A 23187 in the presence or absence of lipoxygenase inhibitor. After 15 minutes, the labelled lipoxygenase products were extracted from the acidified incubation medium and were separated by thin layer chromatography using a mobile phase mixture suitable for the leukotrienes (5-HETE-LTB4) (compare B. Jakschik et al., Biochem.Biophys.Res.Commun., 102, 624, 1981).
The distribution of the activity amongst the various metabolites was measured by a thin layer scanner. It is a measure of the lipoxygenase-inhibiting action of a test substance at a certain concentration.
The lipoxygenase metabolites were also additionally determined independently by means of high pressure liquid chromatography. This method enables the endogenous arachidonic acid metabolism to be studied with the aid of UV detection of the leukotrienes. In this method, the cells were treated as described above, with the exception that no radioactively labelled arachidonic acid was added exogenously. The high pressure liquid chromatography was carried out on Lichrosorb RP-18 (5 μm) columns. The mobile phase was methanol/water/glacial acetic acid 69/31/0.01. The flow rate was 1 ml/minute. Leukotriene B4 was determined at 232 nm, in each case by means of UV absorption.

[9] = tested on: 12-lipoxygenase; experiment: 12-lipoxygenase inhibition; format: biochemical; conditions: these concentrations (>10 μg/ml)
[10] = tested on: ischaemia-induced ECG changes; experiment: Animal experiments: ECG changes in ischaemia; format: in vivo
[11] = tested on: hydroperoxidase portion of cyclooxygenase; conditions: T. E. Eling et al., 1982; cited from earlier work
[12] = 3.10^-5 g/ml, 25° C., 10 minutes

## CC1=NN(CCOc2ccc3ccccc3c2)C(=O)C1 [nafazatrom, 3-methyl-1-[2-(2-naphthyloxy)-ethyl]-2-pyrazolin-5-one]
[1]
  antiasthmatic, inflammation-inhibiting and gastro-protective action: marked antiasthmatic, inflammation-inhibiting and gastro-protective action
[2]
  antithrombotic effectiveness: effective arterially and venously
[3]; [12]
  Increase in concentration (in %) in comparison with the control, 6-Keto-PGF1 α: 300-400%
  Increase in concentration (in %) in comparison with the control, PGD2: 0%
  Increase in concentration (in %) in comparison with the control, PGE2: 0%
  Increase in concentration (in %) in comparison with the control, PGF2 α: 0%
[3]; in words
  synthesis of prostacyclin (PGI2): specifically stimulates
[3]; in words, see Example 2
  synthesis of the prostaglandins having a vasoconstricting action and of TXA2: not influenced
[4]; as 2nd phase, 1.10^-5 g/ml of nafazatrom, 5 minutes
  Perfusion pressure in % of the blank value, 3rd phase: 80%
[4]; as 3rd phase (reoxygenation), 1.10^-5 g/ml
  Perfusion pressure in % of the blank value, 5th phase: 75%
[4]; as 3rd phase, 2% of O2 (hypoxia), 10 minutes, 1.10^-5 g/ml
  Perfusion pressure in % of the blank value, 4th phase: 63%
[4]; first and second carbogen phase
  rise in perfusion pressure caused by addition of platelets: significantly inhibits
[4]; normoxia, carbogen, 1.10^7 platelets/ml, 5 minutes, before addition of nafazatrom
  Perfusion pressure in % of the blank value, 2nd phase: 139%
[4]; preliminary phase, carbogen, before addition of nafazatrom
  Perfusion pressure in % of the blank value, 1st phase: 100%
[5]
  duration of action: about 60 minutes
  increase in the number of leucocytes: 60-100%
[6]
  stimulation of endogenous prostacyclin (PGI2): stimulator of endogenous prostacyclin (PGI2)
[7]
  inhibition of 15-lipoxygenase: not inhibited or is even stimulated
[8]; Homo sapiens, Leucocyte, 1 ug/ml, read-out: Inhibition in % in comparison with the control (leukotriene B4 biosynthesis)
  inhibition at 1 µg/mL: 30%
[8]; Homo sapiens, Leucocyte, 3 ug/ml, read-out: Inhibition in % in comparison with the control (leukotriene B4 biosynthesis)
  inhibition at 3 µg/mL: 75%
[8]; Homo sapiens, Leucocyte, 5 ug/ml, read-out: Inhibition in % in comparison with the control (leukotriene B4 biosynthesis)
  inhibition at 5 µg/mL: 90%
[8]; Homo sapiens, Leucocyte, 10 ug/ml, read-out: Inhibition in % in comparison with the control (leukotriene B4 biosynthesis)
  inhibition at 10 µg/mL: 100%
[8]; as a function of the concentration
  concentration range of inhibition of LTB4 biosynthesis: 1 to 10 µg/mL
[9]
  inhibition of 12-lipoxygenase: not inhibited
[10]; in vivo
  R-wave in the ECG of the peripheral extremities: increases less sharply and re-forms more rapidly
  ST intervals compared with the controls: changed less than in the controls
[10]; indication of infarction
  ischaemia-induced rise in the ST zone: reduces the ischaemia-induced rise in the ST zone
[11]
  action on hydroperoxidase portion of cyclooxygenase; conversion of arachidonic acid into PGH2: acts as a reducing cofactor of the hydroperoxidase portion of cyclooxygenase and accelerates the conversion of arachidonic acid into PGH2
